The values below come from paper PMC10157742, “Supramolecular nanofibers co-loaded with dabrafenib and doxorubicin for targeted and synergistic therapy of differentiated thyroid carcinoma” (Theranostics, 2023).

The subject of series [1] is BCPAP cells. Nature of the series: In vitro cytotoxicity, MTT assay. Format: cell-based. Conditions: Homo sapiens, 48 h, Da/Dox mass ratio 1:1, value given for Dox, n = 3. The protocol:
The cytotoxicity of peptides, free agents, and the co-assemblies towards BCPAP and L02 cells was evaluated using the standard MTT assay. Briefly, the cells were seeded into 96-well plates at a density of 8×10^3 cells per well in 100μL of DMEM medium containing 10% FBS and 1% penicillin-streptomycin. After overnight pre-incubation, the cells were treated with the compound, free agents, and co-assemblies at different concentrations for 48 h. Untreated tumor cells were used as controls. Subsequently, the medium was replaced with an MTT solution (100 μL, 0.5 mg/mL) and further cultured for 4 h. Finally, the supernatant was removed and 100 μL of DMSO was added to each well to dissolve the purple crystals. Cell viability was measured using a microplate reader by recording the absorbance of the formazan product at 570 nm.
On the technique in general: Tetrazolium dyes change colour on reduction, which living cells bring about.

Series [2] relates to BCPAP cells. As to the kind of experiment: Cell apoptosis analysis, Annexin V-APC/7-AAD flow cytometry. Format: cell-based, human. The conditions noted are these: 36 h, 0.5 µM (Dox or Da). On the procedure: Apoptosis in BCPAP cells was measured using an Annexin V-APC/7-AAD Apoptosis Detection Kit. Briefly, BCPAP cells in DMEM were seeded into 6-well plates at a density of 3×10^5 cells per well and incubated overnight. After treatment with PBS and Dox concentration of 0.5 µM for 36 h, the cells were trypsinized, collected, washed twice with cold PBS, and centrifuged at 1500 rpm for 5 min. The precipitated cells were resuspended in 500 μL Annexin V-APC binding buffer and incubated with 5 μL Annexin V-APC and 5 μL 7-AAD at room temperature for 15 min in the dark. The samples were then analyzed using a flow cytometer.

In another series the test system is BCPAP xenograft. As to the kind of experiment: In vivo antitumor activity. Conditions: NSG mice, i.v. every four days five times, 0.5 mg/kg Dox or Da, day 20, mean ± SD, n = 4. The protocol: (§1) All animal experiments were performed according to the protocol approved by the Animal Care and Use Committee of the Tianjin Medical University Cancer Institute and Hospital. NSG mice (5 weeks, female) were purchased from Gempharmatech Co., Ltd. (Jiangsu, China). […] The body weight and tumor size of each mouse were monitored and recorded every two days during the treatment process of 20 days. The tumor volume (V) was measured with a digital caliper and calculated using the equation: V= (L×W^2)/2, where W and L refer to the […] diameters of the tumors, respectively. At the end of the experiment, the mice were euthanized, and the tumor tissues and main organs (heart, liver, spleen, lung, and kidney) were photographed, weighed, and collected. Furthermore, the collected ex vivo tumors and main organs were fixed with 4% paraformaldehyde for the subsequent hematoxylin and eosin (H&E), terminal deoxynucleotidyl transferase-mediated deoxyuridine triphosphate nick end labeling (TUNEL), and immunohistochemical staining, including Ki67, BRAF V600E, p-ERK, Bcl-2, Bax and Cleaved-Caspase 3. Blood was obtained from the mouse eye socket for blood biochemistry and routine blood analysis, which was compared with the blank group without tumor inoculation.

Series [3] in a line: Body weight and serum ALT in the antitumor study. Format: in vivo. Conditions: tumor-bearing NSG mice, n = 4. On the procedure:
as §1

For orientation: IC50 means the concentration needed to halve the response being measured.

As for `CC(C)(C)c1nc(-c2cccc(NS(=O)(=O)c3c(F)cccc3F)c2F)c(-c2ccnc(N)n2)s1` [Da, dabrafenib], the IC50 in the series with BCPAP cells [1] is 2.08 µM. The molecule further had a total apoptosis rate in the series with BCPAP cells [2] of 5.17%. Besides, the “tumor weight at the end of the experiment” value in the series on BCPAP xenograft was 459.6 ± 43.2 mg.
In the case of `COc1cccc2c1C(=O)c1c(O)c3c(c(O)c1C2=O)C[C@@](O)(C(=O)CO)C[C@@H]3O[C@H]1C[C@H](N)[C@H](O)[C@H](C)O1` [Dox, doxorubicin], in series [3] (0.5 mg/kg i.v. every four days five times, 20 days), the body weight result is “slight decrease”. For the same molecule, the “serum glutamic pyruvic transaminase (ALT) level” value in series [3] (end of the antitumor experiment) is recorded as “elevated ALT levels”. In addition, the IC50 in the series with BCPAP cells [1] was determined as 1.72 µM. Also, in the series on BCPAP cells [2], the total apoptosis rate came to 7.08%. For the same molecule, the “tumor weight at the end of the experiment” value in the series on BCPAP xenograft turned out to be 284.7 ± 36.4 mg.
